In ChEMBL document CHEMBL1130603, “Studies on the C-terminal of hexapeptide inhibitors of the hepatitis C virus serine protease” (Bioorg Med Chem Lett, 1998) one finds IC50 and Ki data, which are given here for 24 molecules.

Square brackets hold non-standard residues; d marks the D form. Peptide text beside a SMILES is read from it. * marks the point of attachment. Nle = CCCC[C@H](N)C(=O)O; Nva = CCC[C@H](N)C(=O)O; Abu = CC[C@H](N)C(=O)O; CF3 = FC(F)(F)*

In one test the target is Pancreatic elastase (Sus scrofa, UniProt P08419+P00772). The test can be described thus: Compound was tested for inhibition of porcine pancreatic elastase (PPE). The format is protein assay.
A further test has as its target Cathepsin B (Homo sapiens, UniProt P07858). The test can be described thus: Compound was tested for inhibition of human liver Cathepsin B.
Test [1] in a line: Compound was tested for inhibition of bovine pancreatic alpha-chymotrypsin. Set-up: species or system Bos taurus.
In another test the target is T1, Neutrophil elastase (Homo sapiens, UniProt P08246).
T1 sequence (P08246 whole entry): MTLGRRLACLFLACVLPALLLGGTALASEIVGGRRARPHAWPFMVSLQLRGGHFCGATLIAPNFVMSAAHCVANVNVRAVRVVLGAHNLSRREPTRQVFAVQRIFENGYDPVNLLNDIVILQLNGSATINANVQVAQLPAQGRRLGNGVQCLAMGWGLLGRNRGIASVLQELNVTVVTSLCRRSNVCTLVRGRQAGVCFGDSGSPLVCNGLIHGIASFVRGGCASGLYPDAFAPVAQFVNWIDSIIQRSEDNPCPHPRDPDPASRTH
Briefly: Compound was tested for inhibition of human leucocyte elastase (HLE).

Test [2] deals with Hepatitis C virus serine protease, NS3/NS4A (Hepatitis C virus, UniProt A3EZI9+D2K2A8). The test can be described thus: (§1) Inhibition of hepatitis C virus (HCV) NS3 protease. The format is protein-complex assay, Hepacivirus hominis.
In test [3] the target is T2, Hepatitis C virus serine protease, NS3/NS4A (Hepatitis C virus, UniProt D2K2A8+A3EZI9). The description is as §1. The format is protein-complex assay, Hepacivirus hominis.
The target of test [4] is T2, Hepatitis C virus serine protease, NS3/NS4A. The test can be described thus: Compound was tested for competitive inhibition of hepatitis C virus (HCV) serine protease. Format: protein-complex assay, Hepacivirus hominis.

The term IC50 denotes the concentration that inhibits the measured activity by half. Higher therefore signals lower potency. Regarding `CCC[C@H](NC(=O)[C@@H]1CCCN1C(=O)[C@@H](NC(=O)[C@@H](NC(=O)[C@@H](CC(=O)O)NC(=O)[C@H](CC(=O)O)NC(C)=O)[C@@H](C)CC)C(C)C)C(=O)C(=O)NCc1ccccc1`, the IC50 at Pancreatic elastase was less than 0.06 µM; against Cathepsin B, 172 µM; in test [1], 30 µM; against Neutrophil elastase, 0.1 µM; in test [2], 0.64 µM.
On to `CCC[C@@H](NC(=O)[C@@H]1CCCN1C(=O)[C@@H](NC(=O)[C@@H](NC(=O)[C@@H](CC(=O)O)NC(=O)[C@H](CC(=O)O)NC(C)=O)[C@@H](C)CC)C(C)C)C(=O)OC`, for which half-maximal inhibition in test [3] (IC50) was put at 17 µM.
Turning to `CCC[C@@H](C=O)NC(=O)[C@@H]1CCCN1C(=O)[C@@H](NC(=O)[C@@H](NC(=O)[C@@H](CC(=O)O)NC(=O)[C@H](CC(=O)O)NC(C)=O)[C@@H](C)CC)C(C)C`, the IC50 was 2.2 µM against Pancreatic elastase; 9.5 µM at Cathepsin B; greater than 900 µM in test [1]; 6.7 µM at Neutrophil elastase; 1.1 µM in test [2].
For `CCC[C@H](NC(=O)[C@@H]1CCCN1C(=O)[C@@H](NC(=O)[C@@H](NC(=O)[C@@H](CC(=O)O)NC(=O)[C@H](CC(=O)O)NC(C)=O)[C@@H](C)CC)C(C)C)C(=O)C(F)(F)C(F)(F)F`, in that order: less than 0.06 µM, 416 µM, 18 µM, 0.06 µM and 12 µM.
Ac-DDIVPA-OH registered an IC50 in test [2] of 750 µM.
On to `CCC[C@H](CO)NC(=O)[C@@H]1CCCN1C(=O)[C@@H](NC(=O)[C@@H](NC(=O)[C@@H](CC(=O)O)NC(=O)[C@H](CC(=O)O)NC(C)=O)[C@@H](C)CC)C(C)C`, for which the IC50 in test [2] was found to be 280 µM.
On the same count and under the same terms, to `CCC[C@H](NC(=O)[C@@H]1CCCN1C(=O)[C@@H](NC(=O)[C@@H](NC(=O)[C@H](CC(=O)O)NC(=O)[C@H](CC(=O)O)NC(C)=O)[C@@H](C)CC)C(C)C)C(=O)C(F)(F)C(F)(F)F` belongs 79 µM; to `CCCC[C@H](NC(=O)[C@@H]1CCCN1C(=O)[C@@H](NC(=O)[C@@H](NC(=O)[C@H](CC(=O)O)NC(=O)[C@H](CC(=O)O)NC(C)=O)[C@@H](C)CC)C(C)C)C(=O)O` (Ac-DDIVP[Nle]-OH), 500 µM.
Turning to `CCC[C@@H](NC(=O)[C@@H]1CCCN1C(=O)[C@@H](NC(=O)[C@@H](NC(=O)[C@@H](CC(=O)O)NC(=O)[C@H](CC(=O)O)NC(C)=O)[C@@H](C)CC)C(C)C)C(=O)OCc1ccccc1`, the IC50 against Pancreatic elastase is greater than 1000 µM; against Cathepsin B, greater than 1000 µM; in test [1], 29 µM; at Neutrophil elastase it was greater than 1000 µM; in test [3] it was 9.3 µM.
`CCC[C@H](NC(=O)[C@@H]1CCCN1C(=O)[C@@H](NC(=O)[C@@H](NC(=O)[C@@H](CC(=O)O)NC(=O)[C@H](CC(=O)O)NC(C)=O)[C@@H](C)CC)C(C)C)C(=O)C(F)(F)F` (Ac-D[dD]IVP[Nva]-CF3): the IC50 was 0.19 µM against Pancreatic elastase; greater than 900 µM at Cathepsin B; 4.5 µM in test [1]; less than 0.06 µM against Neutrophil elastase; 22 µM in test [2].
In test [2], `CC[C@H](NC(=O)[C@@H]1CCCN1C(=O)[C@@H](NC(=O)[C@@H](NC(=O)[C@H](CC(=O)O)NC(=O)[C@H](CC(=O)O)NC(C)=O)[C@@H](C)CC)C(C)C)C(=O)O` (Ac-DDIVP[Abu]-OH) yielded an IC50 of 250 µM.
Same read-out and setting: to `CC[C@@H](C)[C@H](NC(=O)[C@@H]1CCCN1C(=O)[C@@H](NC(=O)[C@@H](NC(=O)[C@H](CC(=O)O)NC(=O)[C@H](CC(=O)O)NC(C)=O)[C@@H](C)CC)C(C)C)C(=O)O` belongs 190 µM.
In the case of `CCC[C@H](NC(=O)[C@@H]1CCCN1C(=O)[C@@H](NC(=O)[C@@H](NC(=O)[C@@H](CC(=O)O)NC(=O)[C@H](CC(=O)O)NC(C)=O)[C@@H](C)CC)C(C)C)C(=O)O` (Ac-D[dD]IVP[Nva]-OH), the IC50 was greater than 1000 µM against Pancreatic elastase; greater than 1000 µM on Cathepsin B; greater than 1000 µM in test [1]; greater than 1000 µM on Neutrophil elastase; 17 µM in test [2].
As for `CCC[C@H](NC(=O)[C@@H]1CCCN1C(=O)[C@@H](NC(=O)[C@@H](NC(=O)[C@H](CC(=O)O)NC(=O)[C@H](CC(=O)O)NC(C)=O)[C@@H](C)CC)C(C)C)C(=O)C(F)(F)F` (Ac-DDIVP[Nva]-CF3), the IC50 in test [2] is 160 µM.
`CCC[C@@H](NC(=O)[C@@H]1CCCN1C(=O)[C@@H](NC(=O)[C@@H](NC(=O)[C@@H](CC(=O)O)NC(=O)[C@H](CC(=O)O)NC(C)=O)[C@@H](C)CC)C(C)C)C(=O)NC` came in with an IC50 in test [3] of 160 µM.
Same read-out and setting: in the case of `CCC[C@@H](NC(=O)[C@@H]1CCCN1C(=O)[C@@H](NC(=O)[C@@H](NC(=O)[C@@H](CC(=O)O)NC(=O)[C@H](CC(=O)O)NC(C)=O)[C@@H](C)CC)C(C)C)C(N)=O` it was greater than 1000 µM.
Usually Ki stands for the equilibrium dissociation constant of an inhibitor or competing ligand from its target. A higher Ki goes with weaker binding. Turning to `CC[C@H](C)[C@H](NC(=O)[C@@H](CC(=O)O)NC(=O)[C@H](CC(=O)O)NC(C)=O)C(=O)N[C@H](C(=O)N1CCC[C@@H]1C(=O)N[C@@H](CS)C(=O)O)C(C)C`, the affinity in test [4], expressed as Ki, was 600 nM.
For `CCC[C@H](NC(=O)[C@@H]1CCCN1C(=O)[C@@H](NC(=O)[C@@H](NC(=O)[C@H](CC(=O)O)NC(=O)[C@H](CC(=O)O)NC(C)=O)[C@@H](C)CC)C(C)C)C(=O)C(=O)NCc1ccccc1`, the IC50 is less than 0.06 µM against Pancreatic elastase; 100 µM against Cathepsin B; 10 µM in test [1]; 0.03 µM at Neutrophil elastase; 2 µM in test [2].
On to `CCC[C@@H](C=O)NC(=O)[C@@H]1CCCN1C(=O)[C@@H](NC(=O)[C@@H](NC(=O)[C@H](CC(=O)O)NC(=O)[C@H](CC(=O)O)NC(C)=O)[C@@H](C)CC)C(C)C`, for which inhibition in test [2] was half-maximal at 10 µM (IC50).
With `CC[C@H](C)[C@H](NC(=O)[C@@H]1CCCN1C(=O)[C@@H](NC(=O)[C@@H](NC(=O)[C@H](CC(=O)O)NC(=O)[C@H](CC(=O)O)NC(C)=O)[C@@H](C)CC)C(C)C)C(=O)O`, it took 780 µM to reach half-maximal inhibition in test [2] (IC50). This IC50 is about 78-fold higher than that of the molecule before.
The molecule `CC[C@H](C)[C@H](NC(=O)[C@H](CC(=O)O)NC(=O)[C@H](CC(=O)O)NC(C)=O)C(=O)N[C@H](C(=O)N1CCC[C@H]1C(=O)N[C@@H](CS)C(=O)O)C(C)C` came in with an IC50 in test [2] of 28 µM.
On to `CCC[C@@H](NC(=O)[C@@H]1CCCN1C(=O)[C@@H](NC(=O)[C@@H](NC(=O)[C@@H](CC(=O)O)NC(=O)[C@H](CC(=O)O)NC(C)=O)[C@@H](C)CC)C(C)C)C(=O)NCc1ccccc1`, for which the IC50 against Pancreatic elastase was 206 µM; against Cathepsin B, greater than 1000 µM; in test [1] it was greater than 1000 µM; at Neutrophil elastase, 120 µM; in test [3], 52 µM.
The molecule `CCC[C@H](NC(=O)[C@@H]1CCCN1C(=O)[C@@H](NC(=O)[C@@H](NC(=O)[C@H](CC(=O)O)NC(=O)[C@H](CC(=O)O)NC(C)=O)[C@@H](C)CC)C(C)C)C(=O)O` (Ac-DDIVP[Nva]-OH) displayed an IC50 in test [2] of 150 µM.
On the same count and under the same terms, to Ac-DDIVPL-OH belongs 800 µM.
